Laboratory results published in US7834030B2, “Phenyl-[1,2,4]-oxadiazol-5-one derivatives, pharmaceutical compositions and therapeutic use thereof” (Sanofi-Aventis, priority 2005, dated 2010).

Target: T1, human PPARdelta (Homo sapiens, UniProt Q03181)
T1 construct: human PPARdelta receptor (amino acids S139-Y441); expressed in transfected cells; plasmid pcDNA3
T1 sequence (Q03181 139-441): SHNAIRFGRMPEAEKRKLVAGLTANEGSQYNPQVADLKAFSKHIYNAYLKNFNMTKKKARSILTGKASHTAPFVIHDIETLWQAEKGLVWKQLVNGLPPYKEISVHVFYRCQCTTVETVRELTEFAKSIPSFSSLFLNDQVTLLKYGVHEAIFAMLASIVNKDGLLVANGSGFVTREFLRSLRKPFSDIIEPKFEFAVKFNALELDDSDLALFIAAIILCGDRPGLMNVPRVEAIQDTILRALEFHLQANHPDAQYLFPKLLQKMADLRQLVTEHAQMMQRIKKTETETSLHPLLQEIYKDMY
Test: cellular PPARdelta assay (GAL4 luciferase reporter, stably transfected HEK cell line)
Type: cell-based
Procedure: The PPARalpha reporter cell line is cultivated to 80% confluence in DMEM (# 41965-039, Invitrogen) which is mixed with the following additions: 10% cs-FCS (fetal calf serum; #SH-30068.03, Hyclone), 0.5 mg/ml zeocin (#R250-01, Invitrogen), 0.5 mg/ml G418 (#10136-027, Invitrogen), 1% penicillin-streptomycin solution (#15140-122, Invitrogen) and 2 mM L-glutamine (#25030-024, Invitrogen). The cultivation takes place in standard cell culture bottles (# 353612, Becton Dickinson) in a cell culture incubator at 37° C. in the presence of 5% CO2. The 80%-confluent cells are washed once with 15 ml of PBS (#14190-094, Invitrogen), treated with 3 ml of trypsin solution (#25300-054, Invitrogen) at 37° C. for 2 min, taken up in 5 ml of the DMEM described and counted in a cell counter. After dilution to 500.000 cells/ml, 35,000 cells are seeded in each well of a 96 well microtiter plate with a clear plastic base (#3610, Corning Costar). The plates are incubated in the cell culture incubator at 37° C. and 5% CO2 for 24 h.
PPARalpha agonists to be tested are dissolved in DMSO in a concentration of 10 mM. This stock solution is diluted in DMEM (#41965-039, Invitrogen) which is mixed with 5% cs-FCS (#SH-30068.03, Hyclone), 2 mM L-glutamine (#25030-024, Invitrogen) and the previously described antibiotics (zeocin, G418, penicillin and streptomycin). Test substances are tested in 11 different concentrations in the range from 10 μM to 100 pM.
The medium of the PPARalpha reporter cell line seeded on day 1 is completely removed by aspiration, and the test substances diluted in medium are immediately added to the cells. The dilution and addition of the substances is carried out by a robot (Beckman FX). The final volume of the test substances diluted in medium is 100 μl per well of a 96 well microtiter plate. The DMSO concentration in the assay is less than 0.1% v/v in order to avoid cytotoxic effects of the solvent.
The PPARalpha reporter cells treated with the test substances are removed from the incubator, and the medium is aspirated off. The cells are lyzed by pipetting 50 μl of Bright Glo reagent (from Promega) into each well of a 96 well microtiter plate. After incubation at room temperature in the dark for 10 minutes, the microtiter plates are measured in the luminometer (Trilux from Wallac). The measuring time for each well of a microtiter plate is 1 sec.
The raw data from the luminometer are transferred into a Microsoft Excel file. Dose-effect plots and EC50 values of PPAR agonists are calculated using the XL.Fit program as specified by the manufacturer (IDBS). […] The compounds of the present invention of formula I activate the PPARalpha receptor.
The potency of substances which bind to human PPARdelta and activate it in an agonistic manner was analyzed using a stably transfected HEK cell line (HEK=human embryo kidney) which is referred to here as PPARdelta reporter cell line. In analogy to the assay described for PPARalpha, the PPARdelta reporter cell line also contains two genetic elements, a luciferase reporter element (pdeltaM-GAL4-Luc-Zeo) and a PPARdelta fusion protein (GR-GAL4-humanPPARdelta-LBD) which mediates expression of the luciferase reporter element depending on a PPARdelta ligand. The stably and constitutively expressed fusion protein GR-GAL4-humanPPARdelta-LBD binds in the cell nucleus of the PPARdelta reporter cell line via the GAL4 protein portion to the GAL4 DNA binding motifs 5′-upstream of the luciferase reporter element which is stably integrated in the genome of the cell line. There is only little expression of the luciferase reporter gene in the absence of a PPARdelta ligand if fatty acid-depleted fetal calf serum (cs-FCS) is used in the assay. PPARdelta ligands bind and activate the PPARdelta fusion protein and thereby stimulate expression of the luciferase reporter gene. The luciferase which is formed can be detected by means of chemiluminescence via an appropriate substrate. […]

SMILES	EC50
Cc1nc(-c2ccc(C(F)(F)F)cc2)sc1C(OCc1ccc(-c2noc(=O)[nH]2)c2cccnc12)C(F)(F)F (racemic) [Example 25, 3-(8-{2,2,2-Trifluoro-1-[4-methyl-2-(4-trifluoromethyl-phenyl)-thiazol-5-yl]-ethoxymethyl}-quinolin-5-yl)-4H-[1,2,4]oxadiazol-5-one]	3 nM
Cc1nc(-c2ccc(C(F)(F)F)cc2)sc1C(OCc1ccc(-c2noc(=O)[nH]2)cc1)C(F)(F)C1CC1 (racemic) [Example 32, 3-(4-{2-Cyclopropyl-2,2-difluoro-1-[4-methyl-2-(4-trifluoromethyl-phenyl)-thiazol-5-yl]-ethoxymethyl}-phenyl)-4H-[1,2,4]oxadiazol-5-one]	127 nM
CCC(Oc1ccc(-c2noc(=O)[nH]2)c(F)c1)c1sc(-c2ccc(C(F)(F)F)cc2)nc1C (racemic) [Example 35, 3-(2-Fluoro-4-{1-[4-methyl-2-(4-trifluoromethyl-phenyl)-thiazol-5-yl]-propoxy}-phenyl)-4H-1,2,4-oxadiazol-5-one]	4 nM
CCC(Oc1ccc(-c2noc(=O)[nH]2)c(OC(F)F)c1)c1sc(-c2ccc(C(F)(F)F)cc2)nc1C (racemic) [Example 37, 3-(2-Difluoromethoxy-4-{1-[4-methyl-2-(4-trifluoromethyl-phenyl)-thiazol-5-yl]-propoxy}-phenyl)-4H-1,2,4-oxadiazol-5-one]	0.5 nM
CC[C@@H](Oc1cc(OC)c(-c2noc(=O)[nH]2)cc1F)c1sc(-c2ccc(C(F)(F)F)cc2)nc1C [(+)-40, (+)-3-(5-Fluoro-2-methoxy-4-{(R)-1-[4-methyl-2-(4-trifluoromethyl-phenyl)-thiazol-5-yl]-propoxy}-phenyl)-4H-1,2,4-oxadiazol-5-one]	1 nM
CC[C@@H](Oc1ccc(-c2noc(=O)[nH]2)c(OC(F)F)c1)c1sc(-c2ccc(C(F)(F)F)cc2)nc1CN1CCC(C(F)(F)F)CC1 [(+)-45, (+)-3-(2-Difluoromethoxy-4-{(R)-1-[2-(4-trifluoromethyl-phenyl)-4-(4-trifluoromethyl-piperidin-1-ylmethyl)-thiazol-5-yl]-propoxy}-phenyl)-4H-1,2,4-oxadiazol-5-one]	0.3 nM

More lines, in order of falling EC50, values ahead:

EC50	SMILES
17 nM	Cc1nc(-c2ccc(C(F)(F)F)cc2)sc1C(OCc1ccc(-c2noc(=O)[nH]2)c(F)c1)C(F)(F)F (racemic) [Example 22, 3-(2-Fluoro-4-{2,2,2-trifluoro-1-[4-methyl-2-(4-trifluoromethyl-phenyl)-thiazol-5-yl]-ethoxymethyl}-phenyl)-4H-[1,2,4]oxadiazol-5-one]
17 nM	Cc1nc(-c2ccc(C(F)(F)F)cc2)sc1C(OCc1ccc(-c2noc(=O)[nH]2)c(Cl)n1)C(F)(F)F (racemic) [Example 27, 3-(2-Chloro-6-{2,2,2-trifluoro-1-[4-methyl-2-(4-trifluoromethyl-phenyl)-thiazol-5-yl]-ethoxymethyl}-pyridin-3-yl)-4H-[1,2,4]oxadiazol-5-one]
8 nM	CCC(Oc1ccc(-c2noc(=O)[nH]2)c(OC)c1)c1sc(-c2ccc(C(F)(F)F)cc2)nc1CN1CCC(C(F)(F)F)CC1 (racemic) [Example 42, 3-(2-Methoxy-4-{1-[2-(4-trifluoromethyl-phenyl)-4-(4-trifluoromethyl-piperidin-1-ylmethyl)-thiazol-5-yl]-propoxy}-phenyl)-4H-1,2,4-oxadiazol-5-one]
6 nM	Cc1nc(-c2ccc(C(F)(F)F)cc2)sc1C(Cc1ccccn1)Oc1ccc(-c2noc(=O)[nH]2)c(Cl)c1 (racemic) [Example 10, 3-(2-Chloro-4-{1-[4-methyl-2-(4-trifluoromethyl-phenyl)-thiazol-5-yl]-2-pyridin-2-yl-ethoxy}-phenyl)-4H-[1,2,4]oxadiazol-5-one]
1 nM	CCC(Oc1ccc(-c2noc(=O)[nH]2)c(C2CC2)c1)c1sc(-c2ccc(C(F)(F)F)cc2)nc1C (racemic) [Example 16, 3-(2-Cyclopropyl-4-{1-[4-methyl-2-(4-trifluoromethyl-Phenyl)-thiazol-5-yl]-propoxy}-phenyl)-4H-[1,2,4]oxadiazol-5-one]
1 nM	Cc1nc(-c2ccc(C(F)(F)F)cc2)sc1C(Oc1ccc(-c2noc(=O)[nH]2)c(Cl)c1)C(F)(F)F (racemic) [Example 20, 3-(2-Chloro-4-{2,2,2-trifluoro-1-[4-methyl-2-(4-trifluoromethyl-phenyl)-thiazol-5-yl]-ethoxy}-phenyl)-4H-[1,2,4]oxadiazol-5-one]
1 nM	CCCCC(Cc1ccc(-c2noc(=O)[nH]2)c(F)c1)c1sc(-c2ccc(C(F)(F)F)cc2)nc1C (racemic) [Example 34, 3-(2-Fluoro-4-{2-[4-methyl-2-(4-trifluoromethyl-phenyl)-thiazol-5-yl]-hexyl}-phenyl)-4H-[1,2,4]oxadiazol-5-one]
1 nM	CCC(Oc1ccc(-c2noc(=O)[nH]2)c(OCC(F)(F)F)c1)c1sc(-c2ccc(C(F)(F)F)cc2)nc1C (racemic) [Example 48, 3-[4-{1-[4-Methyl-2-(4-trifluoromethyl-phenyl)-thiazol-5-yl]-propoxy}-2-(2,2,2-trifluoro-ethoxy)-phenyl]-4H-1,2,4-oxadiazol-5-one]
0.2 nM	CCC(Oc1ccc(-c2noc(=O)[nH]2)c(Cl)c1)c1sc(-c2ccc(C(F)(F)F)cc2)nc1C (racemic) [Example 4, 3-(2-Chloro-4-{1-[4-methyl-2-(4-trifluoromethyl-phenyl)-thiazol-5-yl]-propoxy}-phenyl)-4H-[1,2,4]oxadiazol-5-one]
